Assay results reported in patent US11692194B2, “Modulating expression of polypeptides via new gene switch expression systems” (Precigen, Inc., priority 2017, dated 2023).
“Also recorded” adds a separate entry of the source.

Assays:
[1] = tested on: CD19-specific CAR-T cells co-expressing RTS-mbIL-15; assay: Survival of CD19 CAR/RTS-mbIL-15 T cells upon withdrawal of IL-2 and IL-21; format: cell-based, human; settings: veledimex 50 nM, ex vivo culture, % live cells by flow
Experimental: Multiple Sleeping Beauty transposon DNA plasmids encoding for RTS-membrane bound IL-15 (RTS-mbIL-15), CD19-specific chimeric antigen receptor (CD19 CAR) (Design 9, FIG. 2) were transfected into peripheral blood mononuclear cells (PBMC) along with plasmid DNA encoding for Sleeping Beauty transposase SB11 via nucleofection (FIG. 1). On day 0, 20 million PBMC were resuspended in 100 μL of Amaxa Human T cell Nucleofector solution (Cat. no. VPA-1002; Lonza, Basel, Switzerland) mixed with a total of 15 μg of transposons and 5 μg of transposase and nucleofected into cells. The following day (day1) cells were counted, and CAR expression was measured using flow cytometry. Cells were stimulated with either γ-irradiated (100 Gy) or mitomycin C treated K562 based AaPCs expressing CD19 on their surface at a 1:1 ratio. Cultures were supplemented with IL-21 (30 ng/ml) only for the first round of stimulation and subsequently with recombinant human IL-2 (50 IU/ml) and IL-21 (30 ng/ml) (Pepro Tech) for remaining stimulations. […] Cultures were also closely monitored for the outgrowth of NK cells (defined as CD3negCD56+ population) and were removed from the CAR T cell cultures when the percentage exceeded 10% of total cell populations using magnetic beads for CD56 (Stem Cell Technologies and/or Miltenyi Biotec), according to the manufacturer's instructions. […]

[2] = tested on: gene switch components VP16/RxR and Gal4/EcR controlling mbIL-15 in CD19 CAR-T cells; assay: T cell activation and ligand specific control of mbIL-15 (NFAT6-IL2 promoter driven gene switch), flow cytometry; format: cell-based, human
Experimental: Sleeping Beauty transposons were designed to stably express CD19-specific CAR, a cell tag as well as gene switch-controlled mbIL-15. Expression of one or both of gene switch components (e.g. VP16/RxR and Gal4/EcR) were performed under the control of a T cell activation specific promoter. In this example, a T cell activation dependent promoter generated by 6×NFAT response element fused to minimal IL-2 promoter (NFAT6-IL2 promoter) was utilized to drive expression of gene switch components—VP16-RxR and/or Gal4-EcR fusion proteins for conditional expression of mbIL-15. When components of the gene switch are under the control of NFAT6-IL2 promoter, expression of mbIL-15 requires two conditions to be met: 1) T cells are activated; and 2) activator ligand, veledimex, to be present. SB transposons construct combinations shown in FIG. 20A were transfected along with SB11 transposase in donor T cells. […]
The following day (day 1) cells were counted, and CAR expression was measured by flow cytometry. […]
For flow cytometry analysis to assess expression of various markers and gene(s) of interest cells were gently resuspended and cell number and viability were measured using Trypan blue exclusion method with the Countess instrument. Cell diameter size was also recorded. […] The prepared antibody cocktails and associated fluorescence minus one/isotype control were added to stain the cell samples, and then the samples were incubated on ice for 30 min. […] All samples were run on a LSR II flow cytometer, a Fortessa X-20 flow cytometer (BD Biosciences) or iQue Screener Plus (Intellicyt) and data was analyzed using FlowJo V10 (TreeStar, Ashland, Oreg.) or iQue Screener software. […]
Non-activated or activated CAR-T cells were harvested and either 100 nM veledimex or DMSO (to keep DMSO concentration constant in both cultures) was added to the cultures. […] CAR and mbIL-15 expression was quantified in either resting (FIG. 20B) or activated T cells in presence of absence of veledimex (FIG. 20C: ConA 1 μg/mL; ConA 5 μg/mL: FIG. 20D, PMA/Ionomycin: FIG. 20E).

CCC[C@@H](N(NC(=O)c1cccc(OC)c1CC)C(=O)c1cc(C)cc(C)c1)C(C)(C)C [veledimex, N-[(1R)-1-(1,1-dimethylethyl)butyl]-N′-(2-ethyl-3-methoxybenzoyl)-3,5-dimethylbenzohydrazide]
survival of CAR-T cells in absence of cytokines (IL-2 and IL-21) [1]: improved survival of CAR-T cells
mbIL-15 expression in activated CAR-T cells with gene switch components under NFAT6-IL-2 promoter ([2]; constructs #3, 4 and 6, ConA 1 or 5 μg/mL or PMA/Ionomycin, 100 nM veledimex): exhibited expression of mbIL-15; also recorded: dependent on T cell activation (with addition of ConA) and presence of veledimex
mbIL-15 expression in absence of T cell activation ([2]; resting CAR-T cells, 100 nM veledimex, at least 24 hours): only CAR-T cells that harbor transposons for expression of gene switch components (e.g. VP16/RxR and Gal4/EcR) under a constitutive promoter were able to express mbIL-15
levels of mbIL-15 expression versus level of T cell activation ([2]; veledimex at fixed concentration, ConA 1 vs 5 μg/mL): increased with level of T cells activation
